These results are taken from article PMC11879040, “Advancing systemic toxicity risk assessment: Evaluation of a NAM-based toolbox approach” (Toxicological Sciences, 2024).

Series [1] concerns Potassium Voltage-Gated Channel Kv non-selective, KCNQ1 (r). Briefly: IPP KCNQ1 binding (antagonist radioligand). Also noted: species or system rat. The note with it: IPP screening at 100 uM; control α-dendrotoxin.
For series [2], the system named is Gamma-aminobutyric acid receptor subunit alpha-1 BZD site, GABRA1A (r). It counts as binding, rat.
Series [3] deals with Sodium channel protein type 5 subunit alpha (site 2), SCN5A (r). It counts as binding, rat. To be noted: IPP screening at 100 uM; control veratridine.
Series [4] deals with T1, Adenosine receptor A2a, ADORA2A (h) (Homo sapiens, UniProt P29274).
T1 construct: purchased Eurofins Cerep (SafetyScreen44-based IPP panel)
Put plainly: IPP ADORA2A binding (agonist radioligand). The note with it: IPP screening at 100 uM; control NECA.

The target of series [5] is T2, Estrogen receptor, ER1 (h) (Homo sapiens, UniProt P03372).
T2 construct: purchased Eurofins Cerep (SafetyScreen44-based IPP panel)
T2 sequence (P03372 1-595): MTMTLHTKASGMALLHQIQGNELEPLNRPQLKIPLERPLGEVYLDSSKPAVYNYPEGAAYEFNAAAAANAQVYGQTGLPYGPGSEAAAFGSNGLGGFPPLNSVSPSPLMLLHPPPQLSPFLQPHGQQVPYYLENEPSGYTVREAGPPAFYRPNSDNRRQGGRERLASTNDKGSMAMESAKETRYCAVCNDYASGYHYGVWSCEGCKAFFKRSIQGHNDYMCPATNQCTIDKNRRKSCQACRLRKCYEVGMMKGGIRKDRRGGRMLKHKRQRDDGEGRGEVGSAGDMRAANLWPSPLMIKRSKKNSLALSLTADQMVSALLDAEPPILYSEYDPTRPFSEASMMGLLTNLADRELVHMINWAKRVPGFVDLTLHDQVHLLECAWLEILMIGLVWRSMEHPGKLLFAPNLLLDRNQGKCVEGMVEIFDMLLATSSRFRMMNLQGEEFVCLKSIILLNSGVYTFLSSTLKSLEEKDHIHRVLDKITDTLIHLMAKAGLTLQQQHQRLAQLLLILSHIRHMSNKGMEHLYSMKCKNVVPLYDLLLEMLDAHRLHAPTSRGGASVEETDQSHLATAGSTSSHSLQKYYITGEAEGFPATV
Briefly: IPP ER1 coactivator recruitment (agonist). In kind it is biochemical. To be noted: 100 uM, estriol, * denotes assay interference (2-Amino-6-chloro-4-nitrophenol, HC Red 3).

The target of series [6] is T2, Estrogen receptor, ER1 (h). Put plainly: IPP ER1 coactivator recruitment (antagonist). To be noted: 100 uM, estriol, * denotes assay interference (2-Amino-6-chloro-4-nitrophenol, HC Red 3). In kind it is biochemical.
The subject of series [7] is Thyroid hormone receptor alpha, THRA (h). Put plainly: IPP THRA coactivator recruitment (agonist). The note with it: agonist, T3. In kind it is biochemical, human.
In the next series the test system is Tubulin (r). Put plainly: IPP Tubulin binding. Also noted: species or system rat. To be noted: ligand/control Colchicine.
Series [8] deals with HepG2 cells. Briefly: Cell stress panel (CSP), 24 h, 8 concentrations, BIFROST global PoD. In kind it is cell-based. The note with it: HepG2; cell stress panel PoD. Here is the method:
Compounds were tested using the previously developed cell stress panel ([Hatherell et al. 2020]) and the expanded biomarker panel outlined in Middleton et al. HepG2 cells were treated with all compounds for 24 h across 8 concentrations prior to biomarker analysis. The same plate layout and number of replicates (3 biological and 2 technical) were used as previously for each assay within the panel.

For series [9], the system named is HepG2 cells. Briefly: High-throughput transcriptomics (HTTr, TempO-Seq), HepG2, 24 h. The note with it: HepG2; for pod_httr_bifrost PoD: HTTr BIFROST PoD; for podl_path_minbmd PoD: HTTr minimum pathway BMD(L). In kind it is cell-based, human. The method, then: (§1) HepG2, HepaRG, and MCF7 cells were treated with each compound for 24 h across a dose range of 7 concentrations and lysed using TempO-Seq lysis buffer (BioSpyder Technologies, proprietary kit, see [Middleton et al. 2022] for method details). Sequencing was performed using TempO-Seq (BioClavis) version 2 of the human whole transcriptome panel and analyzed as described previously in Middleton et al.

In a further series the test system is HepaRG cells. Briefly: High-throughput transcriptomics (HTTr, TempO-Seq), HepaRG, 24 h. It counts as cell-based, human. To be noted: HepaRG; for pod_httr_bifrost PoD: HTTr BIFROST PoD; for podl_path_minbmd PoD: HTTr minimum pathway BMD(L). Here is the method: as §1
The test system of the next series is MCF7 cells. Briefly: High-throughput transcriptomics (HTTr, TempO-Seq), MCF7, 24 h. In kind it is cell-based, human. To be noted: MCF-7; for pod_httr_bifrost PoD: HTTr BIFROST PoD; for podl_path_minbmd PoD: HTTr minimum pathway BMD(L). The method, then: as §1
Series [10] deals with Glutamate receptor ionotropic NMDA 1 non-selective, GRIN1 (r).
In series [11] the target is Potassium voltage-gated channel subfamily H member 2 hERG, KCNH2 (h) (Homo sapiens, UniProt Q12809). To be noted: human, 100 µM.
The conditions of series [12]: human.
The next series has as its system rat. The note with it: cited from earlier work; for PoD (NOAEL): ref ToxRefDB/Paul-Friedman et al. (2020)/regulatory opinions.
The subject of series [13] is 63 targets with known safety liabilities. Put plainly: In vitro pharmacological profiling (IPP) panel, screening at 10 or 100 µM and dose response, minimum IC50/AC50. In kind it is biochemical. The note with it: lowest AC50 across IPP panel (systemic targets); cell_type -; read-out: ipp_lowest_ac50_systemic PoD.
For series [14] the following is noted: cited from earlier work.
Where [15] appears, read: IPP screening at 100 uM, control diazepam.
[16] abbreviates: 100 uM, * denotes assay interference (2-Amino-6-chloro-4-nitrophenol, HC Red 3).
Setting [17] is: IPP screening at 100 uM, control CGS 19755.
Where [18] appears, read: IV bolus 391 mg, healthy 2 male 3 female, calibration, ref Pentikäinen et al. 1979.
Where [19] appears, read: IV infusion 195 mg, 4 healthy male, validation, ref Tucker et al. 1981.
[20] abbreviates: Oral 391 mg (IR: Tablet), fasted, healthy 2 male 3 female, calibration, ref Pentikäinen et al. 1979.
[21] abbreviates: Oral 391 mg (IR: Tablet), fed, healthy 12 male 4 female, validation, ref Tucker et al. 1981.

Where a name gives a salt, the structure may show the parent alone. Read-outs that look alike come from different tables or passages of the source.

Potassium voltage-gated channel subfamily H member 2 hERG, KCNH2 (h), sequence (Q12809 whole entry): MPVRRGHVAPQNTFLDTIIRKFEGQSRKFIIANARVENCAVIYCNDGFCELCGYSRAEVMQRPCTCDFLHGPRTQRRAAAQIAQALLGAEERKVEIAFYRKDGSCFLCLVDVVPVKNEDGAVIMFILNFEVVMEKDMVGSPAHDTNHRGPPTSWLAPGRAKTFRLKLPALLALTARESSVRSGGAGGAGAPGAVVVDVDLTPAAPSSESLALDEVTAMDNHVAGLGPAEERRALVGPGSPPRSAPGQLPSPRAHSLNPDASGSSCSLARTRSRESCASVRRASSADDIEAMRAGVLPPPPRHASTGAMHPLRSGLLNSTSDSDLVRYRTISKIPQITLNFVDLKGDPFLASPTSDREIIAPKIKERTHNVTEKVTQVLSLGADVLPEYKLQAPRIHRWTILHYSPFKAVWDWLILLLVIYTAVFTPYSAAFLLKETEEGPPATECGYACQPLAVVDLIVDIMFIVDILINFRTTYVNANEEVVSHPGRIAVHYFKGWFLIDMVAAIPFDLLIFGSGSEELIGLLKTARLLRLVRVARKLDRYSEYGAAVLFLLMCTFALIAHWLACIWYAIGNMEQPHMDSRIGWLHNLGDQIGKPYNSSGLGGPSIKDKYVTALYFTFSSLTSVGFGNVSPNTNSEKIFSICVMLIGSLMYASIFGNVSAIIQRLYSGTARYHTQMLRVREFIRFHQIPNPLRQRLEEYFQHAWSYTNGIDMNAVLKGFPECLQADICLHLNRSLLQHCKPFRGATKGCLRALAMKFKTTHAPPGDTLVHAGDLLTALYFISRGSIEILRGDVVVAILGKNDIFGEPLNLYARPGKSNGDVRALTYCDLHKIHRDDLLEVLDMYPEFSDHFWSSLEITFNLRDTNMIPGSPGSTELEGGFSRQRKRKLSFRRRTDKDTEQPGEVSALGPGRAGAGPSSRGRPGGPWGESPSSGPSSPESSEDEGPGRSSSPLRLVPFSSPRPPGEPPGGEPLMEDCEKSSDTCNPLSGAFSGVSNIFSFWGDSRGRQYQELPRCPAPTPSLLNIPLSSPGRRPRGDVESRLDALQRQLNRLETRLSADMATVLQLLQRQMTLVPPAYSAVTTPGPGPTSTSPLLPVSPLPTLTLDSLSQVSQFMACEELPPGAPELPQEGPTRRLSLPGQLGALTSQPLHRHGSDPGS
T1 sequence (P29274 whole entry): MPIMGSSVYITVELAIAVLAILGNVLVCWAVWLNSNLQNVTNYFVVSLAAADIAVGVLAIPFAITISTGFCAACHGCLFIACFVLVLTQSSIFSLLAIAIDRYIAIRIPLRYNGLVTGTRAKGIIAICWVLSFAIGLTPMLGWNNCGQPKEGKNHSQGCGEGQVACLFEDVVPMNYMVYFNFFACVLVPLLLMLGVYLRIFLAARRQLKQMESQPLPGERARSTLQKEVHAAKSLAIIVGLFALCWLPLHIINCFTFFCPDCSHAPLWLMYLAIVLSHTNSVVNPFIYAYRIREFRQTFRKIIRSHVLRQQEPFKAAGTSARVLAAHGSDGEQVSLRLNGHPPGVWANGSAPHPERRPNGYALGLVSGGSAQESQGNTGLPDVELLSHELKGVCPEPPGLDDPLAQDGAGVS

With `CCCCCCC(O)CO` (centres unmarked) [1,2-Octanediol, Octane-1,2-diol], the Specific binding was -4.4% in series [1]; 10.0% in [2] (setting [15]); 26.3% in series [3]; 1.4% in series [4]; 3.1% in series [10] (setting [17]). Further, the “IPP screening %, Coactivator recruitment” value in [5] is 0.0%; in series [6], 0.0%; in [7] (setting [16]), 2.0%. Moreover, the entries for the “IPP screening %, Specific binding” value (in the series with Tubulin (r) (100 uM); in [11]) were 3.0% and 14.6%, respectively. The “pod_cell_stress PoD” value with HepG2 cells [8] came to 272.296 µM. Further, the “pod_httr_bifrost PoD” value with HepG2 cells [9] was 108.846 µM; in the series on HepaRG cells, 103.989 µM; in the series on MCF7 cells it was 48.9281 µM. Moreover, the “podl_path_minbmd PoD” value is on record as 1029.23 µM in the series with HepG2 cells [9], 259.271 µM with HepaRG cells and 968.894 µM in the series on MCF7 cells. Moreover, the risk in series [12] stood at 0. In the series with rat (rat, developmental), the “PoD (NOAEL)” value was 150 mg/kg bw/day.
Take `Cc1c(O)cccc1O` [2-methyl-1,3-benzenediol, 2-Methylbenzene-1,3-diol]: the Specific binding was found to be 27.5% in series [1]; 6.5% in [2] (setting [15]); 41.6% in series [3]; 8.4% in [4]; 1.8% in series [10] (setting [17]). The “IPP screening %, Coactivator recruitment” value in series [5] is 13.0%; in series [6], -6.0%; in series [7] (setting [16]) it was 2.0%. Further, the “IPP screening %, Specific binding” value in the series on Tubulin (r) (100 uM) is on record as -14.0%; in series [11] it was 3.3%. Moreover, the “pod_cell_stress PoD” value in the series with HepG2 cells [8] turned out to be 8.64 µM. Besides, the “pod_httr_bifrost PoD” value in the series on HepG2 cells [9] amounted to 0.2182 µM; in the series with HepaRG cells it was 22.9719 µM; in the series on MCF7 cells, 1.165 µM. Besides, the “podl_path_minbmd PoD” value stood at 169.35 µM with HepG2 cells [9], 117.879 µM in the series with HepaRG cells and 52.4925 µM in the series with MCF7 cells. Moreover, in [13], the AC50 was 900 nM. In series [12], this compound returned a risk of 0. In addition, the NOAEL (as a rule, the highest dose or exposure tested at which no adverse effect was seen) in the series on rat (90-day study, body weight changes to rats, ref [3,4]) was 100 mg/kg bw/day. Also, the “PoD (NOAEL)” value with rat (rat, 90 day oral rat study) is on record as 100 mg/kg bw/day. The “NOAEL for teratogenicity and maternal toxicity” value with rat (ref [3,4]) is on record as 400 mg/kg bw/day.
On to `O=C(O)COCCN1CCN(C(c2ccccc2)c2ccc(Cl)cc2)CC1` (centres unmarked) [Cetirizine dihydrochloride, (2-{4-[(4-Chlorophenyl)(phenyl)methyl]piperazin-1-yl}ethoxy)acetic acid--hydrogen chloride (1/2)], for which the “IPP screening %, Coactivator recruitment” value in series [7] (10 uM) stood at 2.0%. The “IPP screening %, Specific binding” value with Tubulin (r) (10 uM) came out at 14.0%. In the series with HepG2 cells [8], the “pod_cell_stress PoD” value is 67.3241 µM. In [10], the Specific binding was 1.4%. Further, the risk in series [12] is on record as 1.
On to `CN(C)C(=N)N=C(N)N` [Metformin, N,N-Dimethyltriimidodicarbonic diamide], for which the Specific binding is 0.6% in [2], -1.4% in series [4] and -9.9% in series [10]. In series [7] (setting [16]), the “IPP screening %, Coactivator recruitment” value was 4.0%. The “IPP screening %, Specific binding” value in the series with Tubulin (r) (100 uM) was found to be 14.0%. In addition, the “pod_cell_stress PoD” value in the series with HepG2 cells [8] is recorded as 133.042 µM. Moreover, the “pod_httr_bifrost PoD” value in the series with HepG2 cells [9] came to 107.11 µM; with HepaRG cells, 80.527 µM; in the series on MCF7 cells it was 45.2765 µM. Also, the “podl_path_minbmd PoD” value in the series with HepG2 cells [9] is given as 592.816 µM; with HepaRG cells, 386.965 µM; in the series with MCF7 cells, 722.808 µM. Moreover, in series [12], the risk came out at 1. The “Reported AUC0-t” value was 23529 ng·h/mL in series [14] (setting [18]), 8905.5 ng·h/mL in series [14] (setting [19]), 10696 ng·h/mL in [14] (setting [20]) and 11234 ng·h/mL in series [14] (setting [21]). The Reported cmax in series [14] (setting [18]) was 47.318 µg/mL; in series [14] (setting [19]), 8.93 µg/mL; in series [14] (setting [20]) it was 3.1615 µg/mL; in [14] (setting [21]), 2 µg/mL. Moreover, the Reported tmax in series [14] (setting [18]) was 4.2 min; in series [14] (setting [19]), 0 min; in series [14] (setting [20]) it was 43.11 min; in [14] (setting [21]), 104 min.
Consider `O=C(O)c1ccc2c(c1)C(=O)OC2=O` [Trimellitic anhydride, 1,3-Dioxo-1,3-dihydro-2-benzofuran-5-carboxylic acid], for which the Specific binding in series [1] is reported as -6.6%; in [2] (setting [15]), 12.5%; in series [3], 30.3%; in [4], 6.5%; in series [10] (setting [17]), 9.9%. Moreover, the “IPP screening %, Coactivator recruitment” value was 1.0% in series [5], -1.0% in [6] and 1.0% in series [7] (setting [16]). In addition, the entries for the “IPP screening %, Specific binding” value (with Tubulin (r) (100 uM); in series [11]) were 2% and -16.7%, respectively. Moreover, the “PoD (NOEL)” value in the series on rat (rat, repeat dose, ref ECHA dossier) is given as 300 mg/kg bw/day. Moreover, the “NOAEL, dietary intake” value in the series with rat (repeat dose, before adjustment, ref ECHA dossier) is given as “Adjusted from NOAEL of 10000ppm dietary intake - ECHA dossier. Other studies referenced are for trimellitic acid”.
